Our source for the IC50 values is patent publication US11591326B2, “Inhibitors of protein arginine methyltransferase 5 (PRMT5), pharmaceutical products thereof, and methods thereof” (PHARMABLOCK SCIENCES (NANJING), INC., priority 2018, dated 2023).

For assay [1], the system named is Mantle Cell Lymphoma Z-138 cell. Briefly: Cell proliferation inhibition, Z-138 (CCK8). To be noted: Z-138, incubated 4 days. The assay is classed as cell-based. An excerpt: (§1) Materials and Cell Lines: Z-138, U251, and MIA PaCa2 cells were purchased from ATCC (American Type Culture Collection, Manassas, Va.) and Chinese Academy of Science (Shanghai, China). Iscove's Modified Dulbecco's Medium (IMDM), Dulbecco's Modified Eagle Medium (DMEM), penicillin-streptomycin, heat inactivated fetal bovine serum (FBS), and horse serum was purchased from ThermoFisher, Waltham, Mass., USA. Corning 96- and 384-well cell culture plates were purchased from ThermoFisher, Waltham, Mass., USA. Cell-Titer Glo® was purchased from Promega Corporation, Madison, Wis., USA.
In order to evaluate the inhibitory ability of compounds synthesized on the proliferation of the Mantle Cell Lymphoma Z-138 cell, exponentially growing cells were seeded in the media of IMDM with 10% horse serum and 1% penicillin-streptomycin at a concentration of 30000 cells/ml in a 96-well plate with 100 ul per well and incubated overnight at 37° C., 5% CO2 incubator. Compounds were prepared as 10-point, 3-fold serial dilutions in DMSO, beginning at 6 mM. 1 μl of DMSO solutions from the compound stock plates were added to 99 ul of cell culture media (final top concentration of compound in the assay was 30 uM and the final concentration of DMSO was 0.5%). 100 μL of compound solutions in media were added to each well of Z-138 cell plates. After adding compound solutions, assay plates were incubated for 4 days at 37° C., 5% CO2. Cell viability was measured using the Cell Counting Kit-8 (CCK8) obtained from the Beyotime Biotehnology, Shanghai, China. 20 ul of CCK8 reagent was added to each well of the Z-138 assay plate which was incubated at 37° C. for 2 hours. O.D. at 450 nm was read with the FlexStation 3 microplate reader (Molecular Devices, Sunnyvale, Calif. 94089 USA). The concentrations of compounds inhibiting cell viability by 50% (IC50 values) were determined using a sigmoidal dose-response model (variable slopes, four parameters) in Prism 7 (La Jolla, Calif.).

The test system of the next assay is Glioblastoma U-251 cell. The experiment in a line: Cell proliferation inhibition, U-251 (CellTiter-Glo). The assay is classed as cell-based. The conditions noted are these: Homo sapiens, U-251, incubated for 12 days (read after 8 or 12 days).
Text: as §1
In order to evaluate the inhibitory ability of compounds synthesized on the proliferation of the Glioblastoma U-251 cell, exponentially growing cells were seeded in the cell culture media of DMEM with 10% FBS and 1% penicillin-streptomycin at a concentration of 10000 cells/ml in a 384-well plate with 20 ul per well and incubated overnight at 37° C., 5% CO2 incubator. Compounds were prepared as 10-point, 3-fold serial dilutions in DMSO, beginning at 6 mM. 1 μl of DMSO solutions from the compound stock plates were added to 99 ul of cell culture media (final top concentration of compound in the assay was 30 uM and the final concentration of DMSO was 0.5%). 20 μL of compound solutions in media were added to each well of U-251 cell plates. After adding compound solutions, assay plates were incubated for 12 days at 37° C., 5% CO2. During this incubation period, cell culture media with freshly dissolved testing compounds was changed every 4 days. After removing old media from cell plates, 40 ul of media with testing compounds dissolved, which were prepared by adding 1 ul of compound DMSO serial solutions to 199 ul of cell media, were added to the assay plates with the same layout as they were initially prepared. After 8 or 12 days, cell viability was measured using the CellTiter-Glo assay kit from Promega (Madison, Wis., USA) by quantitating the ATP present in the cell cultures. 20 μL of CellTiter-Glo reagent was added to each well of the cell plates. Luminescence was read after 10 minute of incubation with the Envision multiple plate reader from PerkinElmer (Waltham, Mass., USA). The concentrations of compounds inhibiting cell viability by 50% (IC50 values) were determined using a sigmoidal dose-response model (variable slopes, four parameters) in Prism 7 (La Jolla, Calif., USA).
(Cellular ATP, detected with luciferase, serves as a proxy for viable cell number.)

The subject of assay [2] is Pancreatic Carcinoma MIA PaCa-2 cell. Briefly: Cell proliferation inhibition, MIA PaCa-2 (CellTiter-Glo). The conditions noted are these: Homo sapiens, MIA PaCa-2, incubated for 12 days (read after 8 or 12 days), read-out: IC50 (μM) MIA PaCa2. The assay is classed as cell-based.
Text: as §1
In order to evaluate the inhibitory ability of compounds synthesized on the proliferation of the Pancreatic Carcinoma MIA PaCa-2 cell, exponentially growing cells were seeded in the culture media of DMEM with 10% FBS, 2.5% horse serum, 1 mM of Sodium Pyruvate and 1% penicillin-streptomycin at a concentration of 2500 cells/ml in a 384-well plate with 20 ul per well and incubated overnight at 37° C., 5% CO2 incubator. Compounds were prepared as 10-point, 3-fold serial dilutions in DMSO, beginning at 6 mM. 1 μl of DMSO solutions from the compound stock plates were added to 99 ul of cell media (final top concentration of compound in the assay was 30 uM and the final concentration of DMSO was 0.5%). 20 μL of compound solutions in media were added to each well of MIA PaCa-2 cell plates. After adding compound solutions, assay plates were incubated for 12 days at 37° C., 5% CO2. During this incubation period, cell media was changed every 4 days. After removing old media from cell plates, 40 ul of media with testing compounds dissolved, which were prepared by adding 1 ul of compound DMSO serial solutions to 199 ul of cell media, were added to the assay plates with the same layout as they were initially prepared. After 8 or 12 days, cell viability was measured using the CellTiter-Glo assay kit from Promega (Madison, Wis., USA) by quantitating the ATP present in the cell cultures. 20 μL of CellTiter-Glo reagent was added to each well of the cell plates. Luminescence was read after 10 minute of incubation with the Envision multiple plate reader from PerkinElmer (Waltham, Mass., USA). The concentrations of compounds inhibiting cell viability by 50% (IC50 values) were determined using a sigmoidal dose-response model (variable slopes, four parameters) in Prism 7 (La Jolla, Calif., USA).

In assay [3] the target is Human recombinant PRMT5 in complex with human recombinant MEP50 (Homo sapiens (Human), UniProt O14744). Briefly: PRMT5/MEP50 AlphaLISA enzyme inhibitory assay. The class given is biochemical. To be noted: PRMT5/MEP50 25 nM, SAM 10 μM, Biotin-H4 peptide 30 nM. An excerpt: Human recombinant PRMT5 in complex with human recombinant MEP50, co-expressed in an insect cell/baculovirus expression system was purchased from Reaction Biology (Malvern, Pa.). […] Anti-H4R3-Me AlphaLISA acceptor beads and Streptavidin labeled AlphaLISA donor beads were obtained from PerkinElmer (Waltham, Mass.). S-adenosylmethionine (SAM), Tween20, dimethylsulfoxide (DMSO), and Tris buffer were obtained from Sigma at the highest level of purity available.
General Procedure for PRMT5/MEP50 AlphaLISA Enzyme Inhibitory Assays: Assays were performed in the buffer consisting of 50 mM Tris, pH 8.5, 5 mM MgCl2, 50 mM NaCl with 0.01% Tween20 and 1 mM DTT added right before the assay. 2.5 μL of compound solution in the assay buffer with 4% DMSO and 5 μL of PRMT5/MRP50 complex/SAM mixture solution in the assay buffer which was pre-incubated for 30 minutes were added into a white low volume 384 well microtiter plate. This mixture solution was incubated for 15 minutes with gentle shaking at room temperature. Methyl transfer reaction was initiated by adding 2.5 μL of Biotin-H4 (1-21) peptide substrate solution in the assay buffer. Final concentrations of PRMT5/MEP50, SAM, Biotin-H4 peptide substrate, and DMSO were 25 nM, 10 μM, 30 nM, and 1%, respectively. The reaction was allowed to perform for 120 minutes in dark with gentle shaking at room temperature after which 5 μL of Anti-H4R3-Me AlphaLISA acceptor beads in detection buffer from the manufacturer was added into the reaction mixture followed by incubation for 60 minutes. 10 μL of Streptavidin labeled AlphaLISA donor beads in detection buffer was added into the mixture followed by 30 minute incubation. Final acceptor and donor beads concentrations were 10 μg/mL. Plates were read on an Envision multimode plate reader from PerkinElmer (Waltham Mass., USA) with an excitation wavelength of 680 nm and emission wavelength of 615 nm. IC50 values of inhibitors were obtained by fitting the fluorescence intensity vs inhibitor concentrations in a sigmoidal dose-response curve (variable slopes, four parameters) using Prism 7 (La Jolla, Calif.).

Chain of Human recombinant PRMT5 in complex with human recombinant MEP50 (O14744 whole entry): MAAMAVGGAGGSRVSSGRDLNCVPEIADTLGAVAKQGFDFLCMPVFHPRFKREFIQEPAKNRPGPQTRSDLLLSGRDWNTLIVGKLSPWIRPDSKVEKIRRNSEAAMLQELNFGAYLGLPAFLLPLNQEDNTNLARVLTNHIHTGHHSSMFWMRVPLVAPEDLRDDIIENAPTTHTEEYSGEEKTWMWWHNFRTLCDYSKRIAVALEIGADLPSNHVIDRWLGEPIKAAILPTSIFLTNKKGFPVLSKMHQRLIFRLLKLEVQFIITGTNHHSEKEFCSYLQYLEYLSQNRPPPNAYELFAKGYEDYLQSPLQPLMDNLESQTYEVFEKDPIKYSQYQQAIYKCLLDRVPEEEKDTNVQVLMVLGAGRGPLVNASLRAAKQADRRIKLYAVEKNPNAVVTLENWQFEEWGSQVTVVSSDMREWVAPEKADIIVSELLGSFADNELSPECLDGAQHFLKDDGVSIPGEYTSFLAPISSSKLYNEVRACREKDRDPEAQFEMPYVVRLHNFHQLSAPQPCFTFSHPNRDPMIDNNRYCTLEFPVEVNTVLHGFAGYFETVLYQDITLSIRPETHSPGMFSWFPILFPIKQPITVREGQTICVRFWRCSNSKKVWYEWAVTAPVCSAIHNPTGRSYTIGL
Chain of Human recombinant PRMT5 in complex with human recombinant MEP50 (Q9BQA1 whole entry partner): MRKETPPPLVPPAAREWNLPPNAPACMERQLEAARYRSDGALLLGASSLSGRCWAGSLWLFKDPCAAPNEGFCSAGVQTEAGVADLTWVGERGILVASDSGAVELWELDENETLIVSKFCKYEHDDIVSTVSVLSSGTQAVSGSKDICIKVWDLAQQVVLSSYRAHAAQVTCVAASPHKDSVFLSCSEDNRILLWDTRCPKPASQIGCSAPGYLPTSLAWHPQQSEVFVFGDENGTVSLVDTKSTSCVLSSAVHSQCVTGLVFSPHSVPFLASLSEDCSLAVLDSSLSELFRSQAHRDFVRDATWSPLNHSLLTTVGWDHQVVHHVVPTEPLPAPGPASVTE

With `O=C(NC[C@H](O)CN1CCc2ccccc2C1)c1cc(NC2COC2)ncn1` [Compound C1, reference compound], the IC50 in assay [1] (Homo sapiens, Z-138, 96 h) turned out to be 0.11 µM; in assay [1] (listed as Ref 1 (EPZ-015666a)), 0.16 µM; in the assay on Glioblastoma U-251 cell, 1.2 µM; in assay [2], 2 µM.

With `CC(=O)N1CCC(Nc2cc(F)c3c(c2)C(=O)N(C[C@H](O)CN2CCc4ccccc4C2)CCO3)CC1` [Compound 2a, (R)-7-((1-acetylpiperidin-4-yl)amino)-4-(3-(3,4-dihydroisoquinolin-2(1H)-yl)-2-hydroxypropyl)-9-fluoro-3,4-dihydrobenzo[f][1,4]oxazepin-5(2H)-one], the IC50 came to 0.041 µM in assay [1] (Homo sapiens, Z-138, 96 h); 0.024 µM in assay [2]; 57 nM in assay [3].

Regarding `O=C1c2cc(Nc3ccnnc3)ccc2OCCN1C[C@H](O)CN1CCc2ccccc2C1` [Compound 30a, (R)-4-(3-(3,4-dihydroisoquinolin-2(1H)-yl)-2-hydroxypropyl)-7-(pyridazin-4-ylamino)-3,4-dihydrobenzo[f][1,4]oxazepin-5(2H)-one], the IC50 in assay [1] (Homo sapiens, Z-138, 96 h) was 0.018 µM; in the assay with Glioblastoma U-251 cell, 0.18 µM; in assay [2], 0.23 µM; in assay [3], 4.6 nM.

On to `O=C(NC[C@@H](O)CN1CCc2ccccc2C1)c1cc(NC2COC2)ncn1` [Compound C2, reference compound], for which the half-inhibitory concentration (IC50) in assay [1] (Homo sapiens, Z-138, 96 h) was found to be 9.1 µM; in the assay with Glioblastoma U-251 cell, 28.3 µM; in assay [2], 12.1 µM.

In the case of `O=C1c2cc(Nc3ccnnc3)ccc2CCN1C[C@H](O)CN1CCc2ccccc2C1` [Compound 28a, (R)-2-(3-(3,4-dihydroisoquinolin-2(1H)-yl)-2-hydroxypropyl)-7-(pyridazin-4-ylamino)-3,4-dihydroisoquinolin-1(2H)-one], the IC50 is 0.029 µM in assay [1] (Homo sapiens, Z-138, 96 h); 0.5 µM in the assay with Glioblastoma U-251 cell; 0.68 µM in assay [2]; 4.9 nM in assay [3].

Turning to `O=c1c2cc(Nc3ccnnc3)ccc2ncn1CC(O)CN1CCc2ccccc2C1` (centres unmarked) [Compound 31, 3-(3-(3,4-dihydroisoquinolin-2(1H)-yl)-2-hydroxypropyl)-6-(pyridazin-4-ylamino)quinazolin-4(3H)-one], in assay [3], the IC50 was 179 nM.

`Cn1ccc(Nc2ccc3c(c2)C(=O)N(CC(O)CN2CCc4ccccc4C2)CC3)n1` (centres unmarked) [Compound 23, 2-(3-(3,4-dihydroisoquinolin-2(1H)-yl)-2-hydroxypropyl)-7-((1-methyl-1H-pyrazol-3-yl)amino)-3,4-dihydroisoquinolin-1(2H)-one]: the IC50 in assay [3] stood at 61 nM.

Consider `CC(=O)N1CC2(CC(Nc3ccc4c(c3)C(=O)N(CC(O)CN3CCc5ccccc5C3)CCO4)C2)C1` (centres unmarked) [Compound 54, 7-((2-acetyl-2-azaspiro[3.3]heptan-6-yl)amino)-4-(3-(3,4-dihydroisoquinolin-2(1H)-yl)-2-hydroxypropyl)-3,4-dihydrobenzo[f][1,4]oxazepin-5(2H)-one], for which, in assay [3], the IC50 came out at 138 nM.

For `CC(=O)N1CC2C(C1)C2Nc1ccc2c(c1)C(=O)N(CC(O)CN1CCc3ccccc3C1)CCO2` (centres unmarked) [Compound 56, 7-((3-acetyl-3-azabicyclo[3.1.0]hexan-6-yl)amino)-4-(3-(3,4-dihydroisoquinolin-2(1H)-yl)-2-hydroxypropyl)-3,4-dihydrobenzo[f][1,4]oxazepin-5(2H)-one], in assay [3], the IC50 turned out to be 1100 nM.

Turning to `CC(=O)N1CCC(Nc2ccc3c(c2F)C(=O)N(CC(O)CN2CCc4ccccc4C2)CCO3)CC1` (centres unmarked) [Compound 46, 7-((1-acetylpiperidin-4-yl)amino)-4-(3-(3,4-dihydroisoquinolin-2(1H)-yl)-2-hydroxypropyl)-6-fluoro-3,4-dihydrobenzo[f][1,4]oxazepin-5(2H)-one], the half-maximal inhibitory concentration (IC50) in assay [3] came to 138 nM.

Turning to `O=C1c2cc(Nc3cnn(C4COC4)c3)ccc2CCN1CC(O)CN1CCc2ccccc2C1` (centres unmarked) [Compound 22, 2-(3-(3,4-dihydroisoquinolin-2(1H)-yl)-2-hydroxypropyl)-7-((1-(oxetan-3-yl)-1H-pyrazol-4-yl)amino)-3,4-dihydroisoquinolin-1(2H)-one], the IC50 in assay [3] is 21 nM.

`O=C1c2cc(Nc3ccnnc3)cnc2OCCN1CC(O)CN1CCc2ccccc2C1` (centres unmarked) [Compound 47, 4-(3-(3,4-dihydroisoquinolin-2(1H)-yl)-2-hydroxypropyl)-7-(pyridazin-4-ylamino)-3,4-dihydropyrido[3,2-f][1,4]oxazepin-5(2H)-one]: the IC50 in assay [3] was 56.3 nM.

For `Cn1cc(Nc2ccc3c(c2)C(=O)N(C[C@@H](O)CN2CCc4ccccc4C2)CC3)cn1` [Compound 12b, (S)-2-(3-(3,4-dihydroisoquinolin-2(1H)-yl)-2-hydroxypropyl)-7-((1-methyl-1H-pyrazol-4-yl)amino)-3,4-dihydroisoquinolin-1(2H)-one], the concentration for half-maximal inhibition (IC50) in assay [3] was 235 nM.

For orientation: IC50 means the concentration needed to halve the response being measured.
